What was measured:
Format in all cases: in vivo
[1] = tested on: Venturia inaequalis; assay: Apple scab (VENTIN) fungicidal activity; conditions: 24 h, 1 Day Protectant, read-out: Disease Control VENTIN 1DP
Method: Technical grades of materials were dissolved in acetone, which were then mixed with nine volumes of water containing 110 ppm Triton X-100. The fungicide solutions were applied onto wheat seedlings using an automated booth sprayer to run-off. All sprayed plants were allowed to air dry prior to further handling. Wheat plants (variety Yuma) were grown from seed in a greenhouse in 50% mineral soil/50% soil-less Metro mix until the first leaf was fully emerged, with 7-10 seedlings per pot. These plants were inoculated with an aqueous spore suspension of Septoria tritici either prior to or after fungicide treatments. After inoculation the plants were kept in 100% relative humidity (one day in a dark dew chamber followed by two to three days in a lighted dew chamber at 20° C.) to permit spores to germinate and infect the leaf. The plants were then transferred to a greenhouse set at 20° C. for disease to develop. When disease symptoms were fully expressed on the 1st leaves of untreated plants, infection levels were assessed on a scale of 0 to 100 percent disease severity. Percent disease control was calculated using the ratio of disease severity on treated plants relative to untreated plants. Evaluation of Fungicidal Activity: Apple Scab (Venturia Inaequalis; Bayer Code […]) Apple seedlings (variety McIntosh) were grown in soil-less Metro mix, with one plant per pot. Seedlings with two expanding young leaves at the top (older leaves at bottom of the plants were trimmed) were used in the test. Plants were inoculated with a spore suspension of Venturia inaequalis 24 hr after fungicide treatment and kept in a 22° C. dew chamber with 100% RH for 48 hr, and then moved to a greenhouse set at 20° C. for disease to develop. Fungicide formulation, application and disease assessment on the sprayed leaves followed the procedures as described in the Example A.

[2] = tested on: Uncinula necator; assay: Grape powdery mildew (UNCINE) fungicidal activity; conditions: Erysiphe necator, 24 h, 1 Day Protectant, read-out: Disease Control UNCINE 1DP
Method: Technical grades of materials were dissolved in acetone, which were then mixed with nine volumes of water containing 110 ppm Triton X-100. The fungicide solutions were applied onto wheat seedlings using an automated booth sprayer to run-off. All sprayed plants were allowed to air dry prior to further handling. Wheat plants (variety Yuma) were grown from seed in a greenhouse in 50% mineral soil/50% soil-less Metro mix until the first leaf was fully emerged, with 7-10 seedlings per pot. These plants were inoculated with an aqueous spore suspension of Septoria tritici either prior to or after fungicide treatments. After inoculation the plants were kept in 100% relative humidity (one day in a dark dew chamber followed by two to three days in a lighted dew chamber at 20° C.) to permit spores to germinate and infect the leaf. The plants were then transferred to a greenhouse set at 20° C. for disease to develop. When disease symptoms were fully expressed on the 1st leaves of untreated plants, infection levels were assessed on a scale of 0 to 100 percent disease severity. Percent disease control was calculated using the ratio of disease severity on treated plants relative to untreated plants. Evaluation of Fungicidal Activity: Grape Powdery Mildew (Uncinula Necator; Bayer Code […]) Grape seedlings (variety Carignane) were grown in soil-less Metro mix, with one plant per pot, and used in the test when approximately one month old. Plants were inoculated 24 hr after fungicide treatment by shaking spores from infected leaves over test plants. Plants were maintained in a greenhouse set at 20° C. until disease was fully developed. Fungicide formulation, application and disease assessment on the sprayed leaves followed the procedures as described in the Example A.

[3] = tested on: Magnaporthe grisea; Anamorph: Pyricularia oryzae; assay: whole plant or invertebrate; conditions: 24 h, read-out: Disease Control PYRIOR 1DP
[4] = tested on: Cercospora beticola; assay: Leaf spot of sugar beets (CERCBE) fungicidal activity; conditions: 24 h, 1 Day Protectant, sugar beet, read-out: Disease Control CERCBE 1DP
Method: Technical grades of materials were dissolved in acetone, which were then mixed with nine volumes of water containing 110 ppm Triton X-100. The fungicide solutions were applied onto wheat seedlings using an automated booth sprayer to run-off. All sprayed plants were allowed to air dry prior to further handling. Wheat plants (variety Yuma) were grown from seed in a greenhouse in 50% mineral soil/50% soil-less Metro mix until the first leaf was fully emerged, with 7-10 seedlings per pot. These plants were inoculated with an aqueous spore suspension of Septoria tritici either prior to or after fungicide treatments. After inoculation the plants were kept in 100% relative humidity (one day in a dark dew chamber followed by two to three days in a lighted dew chamber at 20° C.) to permit spores to germinate and infect the leaf. The plants were then transferred to a greenhouse set at 20° C. for disease to develop. When disease symptoms were fully expressed on the 1st leaves of untreated plants, infection levels were assessed on a scale of 0 to 100 percent disease severity. Percent disease control was calculated using the ratio of disease severity on treated plants relative to untreated plants. Evaluation of Fungicidal Activity: Leaf Spot of Sugar Beets (Cercospora Beticola; Bayer Code CERCBE) Sugar beet plants (variety HH88) were grown in soil-less Metro mix and trimmed regularly to maintain an uniform plant size prior to test. Plants were inoculated with a spore suspension 24 hr after fungicide treatments. Inoculated plants were kept in a dew chamber at 22° C. for 48 hr then incubated in a greenhouse set at 24° C. under a clear plastic hood with bottom ventilation until disease symptoms were fully expressed. Fungicide formulation, application and disease assessment on the sprayed leaves followed the procedures as described in the Example A.

[5] = tested on: Glomerella lagenarium; Anamorph: Colletotricum lagenarium; assay: Cucumber anthracnose (COLLLA) fungicidal activity; conditions: Colletotrichum orbiculare, 24 h, 1 Day Protectant, read-out: Disease Control COLLLA 1DP
Method: Technical grades of materials were dissolved in acetone, which were then mixed with nine volumes of water containing 110 ppm Triton X-100. The fungicide solutions were applied onto wheat seedlings using an automated booth sprayer to run-off. All sprayed plants were allowed to air dry prior to further handling. Wheat plants (variety Yuma) were grown from seed in a greenhouse in 50% mineral soil/50% soil-less Metro mix until the first leaf was fully emerged, with 7-10 seedlings per pot. These plants were inoculated with an aqueous spore suspension of Septoria tritici either prior to or after fungicide treatments. After inoculation the plants were kept in 100% relative humidity (one day in a dark dew chamber followed by two to three days in a lighted dew chamber at 20° C.) to permit spores to germinate and infect the leaf. The plants were then transferred to a greenhouse set at 20° C. for disease to develop. When disease symptoms were fully expressed on the 1st leaves of untreated plants, infection levels were assessed on a scale of 0 to 100 percent disease severity. Percent disease control was calculated using the ratio of disease severity on treated plants relative to untreated plants. Evaluation of Fungicidal Activity: Cucumber Anthracnose (Glomerella Lagenarium; Anamorph: Colletotricum Lagenarium; Bayer Code COLLLA) Cucumber seedlings (variety Bush Pickle) were propagated in soil-less Metro mix, with each pot having one plant, and used in the test when 12 to 14 days old. Test plants were inoculated with an aqueous spore suspension of Colletotricum lagenarium 24 hr after fungicide treatments. After inoculation the plants were kept in a dew room at 22° C. with 100% relative humidity for 48 hr to permit spores to germinate and infect the leaf. The plants were then transferred to a growth room set at 22° C. for disease to develop. Fungicide formulation, application and disease assessment on the sprayed leaves followed the procedures as described in the Example A.

SMILES: COc1ccnc(C(=O)N[C@H]2COC[C@H](Cc3ccccc3)[C@@H](OCC(C)C)[C@H](C)OC2=O)c1O [Compound 2, N-((3S,7S,8R,9S)-7-benzyl-8-isobutoxy-9-methyl-2-oxo-1,5-dioxonan-3-yl)-3-hydroxy-4-methoxypicolinamide]
- pest or weed control at 100 ppm [1]: 80 to 100%
- pest or weed control at 100 ppm [2]: 0 to 80%
- pest or weed control at 100 ppm [3]: 80 to 100%

SMILES: COc1ccnc(C(=O)N[C@H]2COC[C@H](Cc3ccccc3)[C@@H](OCC(C)C)[C@H](C)OC2=O)c1OCOC(=O)C(C)C [Compound 3]
- pest or weed control at 100 ppm [1]: 0 to 80%
- pest or weed control at 100 ppm [2]: 80 to 100%
- pest or weed control at 100 ppm [4]: 80 to 100%
- pest or weed control at 100 ppm [5]: 80 to 100%

SMILES: COc1ccnc(C(=O)N[C@H]2COC[C@H](Cc3ccccc3)[C@@H](OCC(C)C)[C@H](C)OC2=O)c1OCOC(=O)C(C)(C)C [Compound 7]
- pest or weed control at 100 ppm [1]: 0 to 80%
- pest or weed control at 100 ppm [2]: 80 to 100%
- pest or weed control at 100 ppm [4]: 80 to 100%

SMILES: COc1ccnc(C(=O)N[C@H]2COC[C@H](Cc3ccccc3)[C@@H](OCC(C)C)[C@H](C)OC2=O)c1OCOC(C)=O [Compound 8, (2-((3S,7S,8R,9S)-7-benzyl-8-isobutoxy-9-methyl-2-oxo-1,5-dioxonan-3-ylcarbamoyl)-4-methoxypyridin-3-yloxy)methyl acetate]
- pest or weed control at 100 ppm [1]: 80 to 100%
- pest or weed control at 100 ppm [2]: 80 to 100%
- pest or weed control at 100 ppm [4]: 80 to 100%
- pest or weed control at 100 ppm [3]: 80 to 100%
- pest or weed control at 100 ppm [5]: 80 to 100%

SMILES: COc1ccnc(C(=O)N[C@H]2COC[C@H](Cc3ccccc3)[C@@H](OCC(C)C)[C@H](C)OC2=O)c1OC(C)=O [Compound 9, 2-(((3S,7S,8R,9S)-7-benzyl-8-isobutoxy-9-methyl-2-oxo-1,5-dioxonan-3-yl)carbamoyl)-4-methoxypyridin-3-yl acetate]
- pest or weed control at 100 ppm [1]: 80 to 100%
- pest or weed control at 100 ppm [2]: 80 to 100%
- pest or weed control at 100 ppm [4]: 80 to 100%

SMILES: COc1ccnc(C(=O)N[C@H]2COC[C@H](Cc3ccccc3)[C@@H](OCC(C)C)[C@H](C)OC2=O)c1OC(=O)OC(C)C [Compound 10, 2-(((3S,7S,8R,9S)-7-benzyl-8-isobutoxy-9-methyl-2-oxo-1,5-dioxonan-3-yl)carbamoyl)-4-methoxypyridin-3-yl isopropyl carbonate]
- pest or weed control at 100 ppm [1]: 80 to 100%
- pest or weed control at 100 ppm [2]: 0 to 80%
- pest or weed control at 100 ppm [4]: 80 to 100%

SMILES: COc1ccnc(C(=O)N[C@H]2COC[C@H](Cc3ccccc3)[C@@H](OCCC(=O)N(C)C)[C@H](C)OC2=O)c1OCOC(C)=O [Compound 15]
- pest or weed control at 100 ppm [1]: 0 to 80%
- pest or weed control at 100 ppm [2]: 0 to 80%
- pest or weed control at 100 ppm [4]: 0 to 80%
- pest or weed control at 100 ppm [3]: 0 to 80%
- pest or weed control at 100 ppm [5]: 0 to 80%

SMILES: COCCCO[C@@H]1[C@@H](Cc2ccccc2)COC[C@H](NC(=O)c2nccc(OC)c2OCOC(C)=O)C(=O)O[C@H]1C [Compound 16]
- pest or weed control at 100 ppm [1]: 0 to 80%
- pest or weed control at 100 ppm [2]: 0 to 80%
- pest or weed control at 100 ppm [4]: 80 to 100%
- pest or weed control at 100 ppm [3]: 80 to 100%
- pest or weed control at 100 ppm [5]: 80 to 100%

SMILES: CCCO[C@@H]1[C@@H](Cc2ccccc2)COC[C@H](NC(=O)c2nccc(OC)c2OCOC(C)=O)C(=O)O[C@H]1C [Compound 22]
- pest or weed control at 100 ppm [1]: 80 to 100%
- pest or weed control at 100 ppm [2]: 80 to 100%
- pest or weed control at 100 ppm [4]: 80 to 100%
- pest or weed control at 100 ppm [3]: 80 to 100%
- pest or weed control at 100 ppm [5]: 80 to 100%

SMILES: COc1ccnc(C(=O)N[C@H]2COC[C@H](Cc3ccccc3)[C@@H](OCCCC(F)(F)F)[C@H](C)OC2=O)c1OCOC(C)=O [Compound 23]
- pest or weed control at 100 ppm [1]: 0 to 80%
- pest or weed control at 100 ppm [2]: 0 to 80%
- pest or weed control at 100 ppm [4]: 80 to 100%
- pest or weed control at 100 ppm [3]: 80 to 100%
- pest or weed control at 100 ppm [5]: 80 to 100%

SMILES: CCCCCO[C@@H]1[C@@H](Cc2ccccc2)COC[C@H](NC(=O)c2nccc(OC)c2OCOC(C)=O)C(=O)O[C@H]1C [Compound 26]
- pest or weed control at 100 ppm [1]: 80 to 100%
- pest or weed control at 100 ppm [2]: 80 to 100%
- pest or weed control at 100 ppm [4]: 80 to 100%
- pest or weed control at 100 ppm [3]: 80 to 100%
- pest or weed control at 100 ppm [5]: 80 to 100%

SMILES: COc1ccnc(C(=O)N[C@H]2COC[C@H](Cc3ccccc3)[C@@H](OCCCc3ccccc3)[C@H](C)OC2=O)c1OCOC(C)=O [Compound 34]
- pest or weed control at 100 ppm [1]: 80 to 100%
- pest or weed control at 100 ppm [2]: 0 to 80%
- pest or weed control at 100 ppm [4]: 80 to 100%
- pest or weed control at 100 ppm [3]: 80 to 100%
- pest or weed control at 100 ppm [5]: 80 to 100%

SMILES: COC(=O)/C=C/O[C@@H]1[C@@H](Cc2ccccc2)COC[C@H](NC(=O)c2nccc(OC)c2OCOC(C)=O)C(=O)O[C@H]1C [Compound 36]
- pest or weed control at 100 ppm [1]: 0 to 80%
- pest or weed control at 100 ppm [2]: 0 to 80%
- pest or weed control at 100 ppm [4]: 0 to 80%
- pest or weed control at 100 ppm [3]: 80 to 100%
- pest or weed control at 100 ppm [5]: 80 to 100%

SMILES: COc1ccnc(C(=O)N[C@H]2COC[C@H](Cc3ccccc3)[C@@H](OCC(F)F)[C@H](C)OC2=O)c1OCOC(C)=O [Compound 44]
- pest or weed control at 100 ppm [1]: 0 to 80%
- pest or weed control at 100 ppm [2]: 0 to 80%
- pest or weed control at 100 ppm [4]: 0 to 80%
- pest or weed control at 100 ppm [3]: 80 to 100%

SMILES: COc1ccnc(C(=O)N[C@H]2COC[C@H](Cc3ccccc3)[C@@H](OCCC(C)OC)[C@H](C)OC2=O)c1OCOC(C)=O (stereo partly drawn) [Compound 46]
- pest or weed control at 100 ppm [1]: 80 to 100%
- pest or weed control at 100 ppm [2]: 0 to 80%
- pest or weed control at 100 ppm [4]: 80 to 100%
- pest or weed control at 100 ppm [3]: 80 to 100%

SMILES: COc1ccnc(C(=O)N[C@H]2COC[C@H](Cc3ccccc3)[C@@H](OC3CCCC3)[C@H](C)OC2=O)c1OCOC(C)=O [Compound 106]
- pest or weed control at 100 ppm [4]: 80 to 100%
- pest or weed control at 100 ppm [5]: 80 to 100%

— US8835462B2, “Macrocyclic picolinamides as fungicides” (Dow AgroSciences LLC, priority 2012, dated 2014)
